Results on nine compounds are retold here after PubChem BioAssay (NCI).

Common to all, as to experiment: growth of human tumour cells (NCI), 48 h
Experiment [1] has as its system MDA-N.
Experiment [2] relates to ACHN renal.
For experiment [3], the system named is RPMI-8226 leukemia.
The test system of experiment [4] is CAKI-1 renal.
The test system of experiment [5] is BT-549 breast.
Experiment [6] concerns CCRF-CEM leukemia.
Experiment [7] concerns NCI-H460 lung.
For experiment [8], the system named is DU-145 prostate.
Experiment [9] relates to HS 578T breast.
The test system of experiment [10] is NCI/ADR-RES ovarian.
For experiment [11], the system named is A549 NSCLC.
In experiment [12] the test system is MCF7 breast.
Experiment [13] has as its system OVCAR-3 ovarian.
The subject of experiment [14] is HCT-116 colon.
For experiment [15], the system named is SF-268 CNS.
The test system of experiment [16] is SK-MEL-2 melanoma.
Experiment [17] deals with HCT-15 colon.

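Five compound concentrations were applied to cells in 96-well plates for 48 hours; endpoints were derived by simple linear interpolation of the resulting dose-response curve. TGI: concentration producing complete growth inhibition.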

Turning to `CC(=O)OCC1OC(n2c3c(c(-c4ccc(C)cc4)c(C#N)c2=S)C(=O)CC(C)(C)C3)C(OC(C)=O)C(OC(C)=O)C1OC(C)=O` (stereo unspecified), the TGI in [1] was 41.5 µM; in experiment [2], over 100 µM; in experiment [3], over 100 µM; in experiment [4] it was over 100 µM; in experiment [5] it was 38.1 µM; in experiment [6], over 100 µM. The TGI in experiment [7], in experiment [8], in experiment [9], in experiment [10], in [11] and in experiment [12] was over 100 µM in each case. The figures for the TGI in experiment [13], in experiment [14] and in experiment [15] were over 100 µM, over 100 µM and 94.9 µM, respectively.
`COc1ccc2c(c1)/C(=C/c1c(O)[nH]c(=S)[nH]c1=O)C=N2`: the TGI in experiment [1], in experiment [2], in experiment [4], in [5], in experiment [6] and in experiment [7] was over 100 µM throughout. Also, the TGI in [8], in experiment [9], in [10], in [11], in [16] and in experiment [17] was over 100 µM throughout. Also, the TGI in experiment [12] was over 100 µM; in experiment [13] it was over 100 µM; in experiment [14] it was over 100 µM; in experiment [15], 61.8 µM.
With `CCOC(=O)c1nc2ccccc2nc1Oc1cc(OC)cc(OC)c1`, the TGI in experiment [1], in [2], in experiment [3], in [5], in [6] and in [7] was over 100 µM each time. Besides, the TGI in [8], in experiment [9], in [10], in experiment [11], in experiment [16] and in experiment [17] was over 100 µM in each case. Moreover, the TGI in experiment [12], in [13], in [14] and in experiment [15] was over 100 µM throughout.
For `CCCc1nnc2sc(COc3ccc(OCc4nn5c(CCC)nnc5s4)c(Cl)c3)nn12`, the TGI in [1] is 45.4 µM; in experiment [2], 59.1 µM; in [3] it was over 100 µM; in [4] it was 60 µM; in experiment [5], over 100 µM; in [7] it was 78.1 µM. Also, the TGI in experiment [8], in [9], in experiment [10], in experiment [11], in [16] and in experiment [17] was over 100 µM each time. The TGI in experiment [12] was 55.3 µM; in [13], over 100 µM; in experiment [14], over 100 µM; in [15] it was over 100 µM.
Consider `C[N+]1(C)C2CC(OC(=O)C(CO)c3ccccc3)CC1C1OC12` (stereo unspecified), for which the TGI in experiment [1], in experiment [2], in experiment [3], in [4], in [5] and in [6] was over 100 µM each time. Also, the TGI in experiment [8], in experiment [9], in [10], in [11], in [16] and in experiment [17] was over 100 µM in each case. The TGI in [12], in [13] and in [14] was over 100 µM each time.
Consider `O=C1C=CC2(C=C1)O[C@H](COCc1ccccc1)[C@@H](COCc1ccccc1)O2`, for which the TGI worked out at 3.53 µM in [1]; 3.1 µM in experiment [2]; 1.94 µM in experiment [3]; 5.88 µM in [4]; 2.37 µM in experiment [5]; 37.2 µM in experiment [7]. Further, the TGI in [8] was 12.5 µM; in experiment [9], 4.87 µM; in experiment [10], 3.71 µM; in experiment [11], 39 µM; in experiment [16], 3.46 µM; in experiment [17] it was 2.99 µM. Further, the TGI was determined as 2.3 µM in experiment [12], 6.32 µM in experiment [13], 0.582 µM in experiment [14] and 3.69 µM in experiment [15].
In the case of `CN(Cc1cnc2nc(N)nc(N)c2n1)c1ccc(C(=O)NCCCS(=O)(=O)O)cc1`, the TGI in [1], in experiment [2], in experiment [3], in experiment [5], in [7] and in [8] was over 100 µM each time. The TGI in [9], in [10], in experiment [11], in [16], in experiment [17] and in experiment [12] was over 100 µM throughout. Also, the TGI in [13], in experiment [14] and in [15] was over 100 µM each time.
`CC(C#N)(c1ccccc1)N(CCc1ccccc1)C(=O)Oc1ccccc1` (stereo unspecified): the TGI in experiment [1], in experiment [2], in [3], in [4], in [5] and in experiment [6] was over 100 µM throughout. Further, the TGI in experiment [8], in [9], in experiment [10], in [11], in [16] and in experiment [17] was over 100 µM throughout. Moreover, the TGI in [12], in experiment [13], in experiment [14] and in [15] was over 100 µM throughout.
As for `O=C(CCC(=O)c1ccsc1)c1ccsc1`, the TGI in experiment [1], in [2], in [3], in [4], in experiment [5] and in experiment [7] was over 100 µM in each case. For the same compound, the TGI in experiment [8], in [9], in [10], in experiment [11], in [16] and in experiment [17] was over 100 µM each time. The TGI in [12], in experiment [13], in [14] and in experiment [15] was over 100 µM each time.
